Experimental data: PubChem BioAssay (NCI)
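Following 48 hours of exposure in 96-well plates, responses at five concentrations were used to interpolate endpoints linearly. The concentration for full growth arrest is given as TGI.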

Experiments:
Experiment in all cases: NCI anticancer screen, dose series, 48 h
OVCAR-8 ovarian = test system: OVCAR-8 ovarian
T-47D breast = test system: T-47D breast
SNB-19 CNS = test system: SNB-19 CNS
K-562 leukemia = test system: K-562 leukemia
A498 renal = test system: A498 renal
NCI/ADR-RES ovarian = test system: NCI/ADR-RES ovarian
SF-268 CNS = test system: SF-268 CNS
IGROV1 ovarian = test system: IGROV1 ovarian
SW-620 colon = test system: SW-620 colon
M14 melanoma = test system: M14 melanoma
OVCAR-3 ovarian = test system: OVCAR-3 ovarian
SK-OV-3 ovarian = test system: SK-OV-3 ovarian
OVCAR-4 ovarian = test system: OVCAR-4 ovarian
HCC-2998 colon = test system: HCC-2998 colon
RPMI-8226 leukemia = test system: RPMI-8226 leukemia
CAKI-1 renal = test system: CAKI-1 renal
HCT-116 colon = test system: HCT-116 colon
SF-539 CNS = test system: SF-539 CNS
SNB-75 CNS = test system: SNB-75 CNS
EKVX NSCLC = test system: EKVX NSCLC
UACC-257 melanoma = test system: UACC-257 melanoma
SK-MEL-2 melanoma = test system: SK-MEL-2 melanoma
HCT-15 colon = test system: HCT-15 colon
NCI-H226 lung = test system: NCI-H226 lung
MDA-MB-231 breast = test system: MDA-MB-231 breast
786-0 renal = test system: 786-0 renal
A549 NSCLC = test system: A549 NSCLC
LOX IMVI melanoma = test system: LOX IMVI melanoma
MDA-MB-435 = test system: MDA-MB-435
DU-145 prostate = test system: DU-145 prostate
NCI-H23 lung = test system: NCI-H23 lung
COLO 205 colon = test system: COLO 205 colon
SN12C renal = test system: SN12C renal
NCI-H460 lung = test system: NCI-H460 lung
HOP-92 NSCLC = test system: HOP-92 NSCLC
CCRF-CEM leukemia = test system: CCRF-CEM leukemia
MDA-N = test system: MDA-N
HOP-62 NSCLC = test system: HOP-62 NSCLC
SF-295 CNS = test system: SF-295 CNS
HL-60(TB) leukemia = test system: HL-60(TB) leukemia
SK-MEL-28 melanoma = test system: SK-MEL-28 melanoma
MCF7 breast = test system: MCF7 breast
MOLT-4 leukemia = test system: MOLT-4 leukemia
BT-549 breast = test system: BT-549 breast
U251 CNS = test system: U251 CNS
PC-3 prostate = test system: PC-3 prostate
TK-10 renal = test system: TK-10 renal
RXF 393 renal = test system: RXF 393 renal
UACC-62 melanoma = test system: UACC-62 melanoma
ACHN renal = test system: ACHN renal
HT29 colon = test system: HT29 colon
NCI-H522 lung = test system: NCI-H522 lung
KM12 colon = test system: KM12 colon
UO-31 renal = test system: UO-31 renal
OVCAR-5 ovarian = test system: OVCAR-5 ovarian
MALME-3M melanoma = test system: MALME-3M melanoma
HS 578T breast = test system: HS 578T breast
SK-MEL-5 melanoma = test system: SK-MEL-5 melanoma
SR leukemia = test system: SR leukemia

Work on `Cc1ccc(C(=O)c2[nH]c(NCc3ccccc3)c(C(=S)Nc3ccccc3)c2N)cc1` yielded a TGI (OVCAR-8 ovarian) of 26.1 µM, a TGI (T-47D breast) of 33.5 µM and a TGI (SNB-19 CNS) of 29.1 µM. For the same compound, the TGI (K-562 leukemia) was 5.11 µM, the TGI (A498 renal) was 31.6 µM and the TGI (NCI/ADR-RES ovarian) was 8.51 µM. It also gave a TGI (SF-268 CNS) of 28.8 µM, a TGI (IGROV1 ovarian) of 19.9 µM and a TGI (SW-620 colon) of 5.19 µM. For the same compound, the TGI (M14 melanoma) was 3.97 µM, the TGI (OVCAR-3 ovarian) was 25.2 µM and the TGI (SK-OV-3 ovarian) was 8.04 µM. For the same compound, the TGI (OVCAR-4 ovarian) was 12.5 µM, the TGI (HCC-2998 colon) was 2.65 µM and the TGI (RPMI-8226 leukemia) was 5 µM. The TGI (CAKI-1 renal) was 27.5 µM, the TGI (HCT-116 colon) was 15.2 µM and the TGI (SF-539 CNS) was 5.63 µM. It also gave a TGI (SNB-75 CNS) of 16.6 µM, a TGI (EKVX NSCLC) of 26.5 µM and a TGI (UACC-257 melanoma) of 18.4 µM. The TGI (SK-MEL-2 melanoma) was 22.8 µM, the TGI (HCT-15 colon) was 4.33 µM and the TGI (NCI-H226 lung) was 32.3 µM. For the same compound, the TGI (MDA-MB-231 breast) was 19.6 µM, the TGI (786-0 renal) was 18.7 µM and the TGI (A549 NSCLC) was 22.1 µM. The TGI (LOX IMVI melanoma) was 3.97 µM, the TGI (MDA-MB-435) was 10.2 µM and the TGI (DU-145 prostate) was 27 µM. The TGI (NCI-H23 lung) was 27.1 µM, the TGI (COLO 205 colon) was 18 µM and the TGI (SN12C renal) was 28.8 µM. For the same compound, the TGI (NCI-H460 lung) was 18.8 µM, the TGI (HOP-92 NSCLC) was 18.9 µM and the TGI (CCRF-CEM leukemia) was 28.9 µM. It also gave a TGI (MDA-N) of 12.3 µM, a TGI (HOP-62 NSCLC) of 29.2 µM and a TGI (SF-295 CNS) of 17.2 µM. It also gave a TGI (HL-60(TB) leukemia) of 33.5 µM, a TGI (SK-MEL-28 melanoma) of 9.97 µM and a TGI (MCF7 breast) of 13.2 µM. The TGI (MOLT-4 leukemia) was 6.38 µM, the TGI (BT-549 breast) was 20.3 µM and the TGI (U251 CNS) was 15.6 µM. For the same compound, the TGI (PC-3 prostate) was 26.1 µM, the TGI (TK-10 renal) was 23.3 µM and the TGI (RXF 393 renal) was 20.7 µM. It also gave a TGI (UACC-62 melanoma) of 25.2 µM, a TGI (ACHN renal) of 23.5 µM and a TGI (HT29 colon) of 10.5 µM. The TGI (NCI-H522 lung) was 4.96 µM, the TGI (KM12 colon) was 6.34 µM and the TGI (UO-31 renal) was 18.2 µM. It also gave a TGI (OVCAR-5 ovarian) of 27 µM.

In the case of `CC1(C)C2CCC1(C)C(NC(=O)COCCOCC(N)=O)C2` (centres undefined), the TGI (OVCAR-8 ovarian) was > 100 µM, the TGI (T-47D breast) was > 100 µM and the TGI (MALME-3M melanoma) was > 100 µM. The TGI (SNB-19 CNS) was > 100 µM, the TGI (K-562 leukemia) was > 100 µM and the TGI (A498 renal) was > 100 µM. The TGI (SF-268 CNS) was > 100 µM, the TGI (IGROV1 ovarian) was > 100 µM and the TGI (SW-620 colon) was > 100 µM. For the same compound, the TGI (M14 melanoma) was > 100 µM, the TGI (OVCAR-3 ovarian) was > 100 µM and the TGI (SK-OV-3 ovarian) was > 100 µM. For the same compound, the TGI (OVCAR-4 ovarian) was > 100 µM, the TGI (HCC-2998 colon) was > 100 µM and the TGI (HS 578T breast) was > 100 µM. The TGI (CAKI-1 renal) was > 100 µM, the TGI (SK-MEL-5 melanoma) was > 100 µM and the TGI (HCT-116 colon) was > 100 µM. The TGI (SF-539 CNS) was > 100 µM, the TGI (SNB-75 CNS) was > 100 µM and the TGI (EKVX NSCLC) was > 100 µM. For the same compound, the TGI (UACC-257 melanoma) was > 100 µM, the TGI (NCI-H226 lung) was > 100 µM and the TGI (MDA-MB-231 breast) was > 100 µM. The TGI (786-0 renal) was > 100 µM, the TGI (A549 NSCLC) was > 100 µM and the TGI (MDA-MB-435) was > 100 µM. The TGI (DU-145 prostate) was > 100 µM, the TGI (NCI-H23 lung) was > 100 µM and the TGI (COLO 205 colon) was > 100 µM. For the same compound, the TGI (SN12C renal) was > 100 µM, the TGI (NCI-H460 lung) was > 100 µM and the TGI (HOP-92 NSCLC) was > 100 µM. The TGI (SR leukemia) was 85.1 µM, the TGI (CCRF-CEM leukemia) was > 100 µM and the TGI (MDA-N) was > 100 µM. The TGI (HOP-62 NSCLC) was > 100 µM, the TGI (SF-295 CNS) was > 100 µM and the TGI (HL-60(TB) leukemia) was > 100 µM. The TGI (SK-MEL-28 melanoma) was > 100 µM, the TGI (MCF7 breast) was > 100 µM and the TGI (MOLT-4 leukemia) was > 100 µM. For the same compound, the TGI (BT-549 breast) was > 100 µM, the TGI (U251 CNS) was > 100 µM and the TGI (PC-3 prostate) was > 100 µM. For the same compound, the TGI (TK-10 renal) was > 100 µM, the TGI (RXF 393 renal) was > 100 µM and the TGI (UACC-62 melanoma) was > 100 µM. The TGI (ACHN renal) was > 100 µM, the TGI (HT29 colon) was > 100 µM and the TGI (NCI-H522 lung) was > 100 µM. The TGI (KM12 colon) was > 100 µM, the TGI (UO-31 renal) was > 100 µM and the TGI (OVCAR-5 ovarian) was > 100 µM.
